In paper PMC7997579, “Synthetic Lethality in Pancreatic Cancer: Discovery of a New RAD51-BRCA2 Small Molecule Disruptor That Inhibits Homologous Recombination and Synergizes with Olaparib” (Journal of Medicinal Chemistry, 2020):
Like-named read-outs stand apart in the source and are kept apart here.

Key:
BRC4–RAD51 interaction = target: T1, BRC4–RAD51 interaction (Homo sapiens, UniProt Q06609); test: Competitive biochemical ELISA assay (biotinylated BRC4 peptide vs RAD51); type: binding
T1 construct: purchased Creative Biomart (RAD51); Life Technologies (BRC4 peptide)
T1 sequence (Q06609 1-339): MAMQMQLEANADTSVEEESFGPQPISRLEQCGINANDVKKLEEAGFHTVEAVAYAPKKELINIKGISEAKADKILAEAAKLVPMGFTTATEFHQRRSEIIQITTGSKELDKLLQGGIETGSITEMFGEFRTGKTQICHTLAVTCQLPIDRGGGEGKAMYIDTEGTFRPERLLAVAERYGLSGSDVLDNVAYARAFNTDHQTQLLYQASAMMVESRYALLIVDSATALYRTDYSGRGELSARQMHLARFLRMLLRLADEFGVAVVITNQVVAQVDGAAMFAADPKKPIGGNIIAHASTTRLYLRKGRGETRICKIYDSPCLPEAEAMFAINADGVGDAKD
Experimental: To investigate the mechanism of action of the new dihydroquinolone pyrazoline derivatives, different biological assays were performed. As a primary screening, the ability of compounds 5d–57d to inhibit RAD51-BRCA2 interaction was investigated with a competitive biochemical ELISA assay against the parent compound 4d (Table 1). This assay is effective in evaluating the ability of new molecules to compete with BRC4 to bind to RAD51.[30] […] 18d–21d, 23d, 25d, 30d, and 31d were active at micromolar range, all very similar to the initial hit. […] The replacement of the aromatic ring A in combination with the substitution of the pyrazoline nitrogen with either propionyl or acetyl chain yielded compounds 33d–51d. […] As expected for PPI disruptors, the SARs of the new series of dihydroquinolone pyrazoline were rather complex to rationalize, with many cliffs and spikes that were difficult to understand. […] Accordingly, 4d, 12d, 18d, 20d–23d, 30d, 31d, 33d–36d, 39d, 45d, and 49d were submitted to cell-based study (Table 2).
Competitive ELISA screening assay using biotinylated BRC4 peptide to disrupt the BRC4–RAD51 interaction was performed by modifying the method described by Rajendra et al.[33] BRC4-biotinylated peptide (N-term biotin-[…] from Life Technologies) was used to coat 384-well plates (Nunc). After washing with PBS containing 0.05% Tween-20 (PBST) and blocking with the solution BSA 1% /PBST, overnight hybridization with human RAD51 protein (NP_002866 Creative Biomart, NY) was performed. Test compounds were added in dose response from 0.01 to 100 μM in triplicate with constant DMSO 1%. Antibody raised against RAD51 (Millipore) and HRP-secondary antibody staining to develop the 3,3′,5,5′-tetramethylbenzidine signal (Sigma) quenched with 1 M HCl was used as the assay readout. Colorimetric measure was read on a Victor5 (PerkinElmer) plate reader. BRC4 and Rad51 were included in the assay as positive control. Results were analyzed by using GraphPad software.

[1] = tested on: homologous recombination in BxPC3 cells; test: Homologous recombination assay (two-plasmid recombination, real-time PCR); type: cell-based, human; settings: BxPC3; one or two doses in the range of the ELISA EC50; NDD = not dose-dependent
Excerpt: Our working hypothesis is that compounds disrupting RAD51-BRCA2 interaction should affect HR repair and increase the efficacy of PARPi in treating breast, ovarian, and pancreatic cancer. For its clinical relevance, pancreatic adenocarcinoma was selected as our final model for cell-based experiments, and BxPC3 cells were selected for a straightforward comparison with the previously reported triazole derivatives.[30],[31] BxPC3 is derived from a human adenocarcinoma that expresses fully functional BRCA2.[38] As shown in Table 2 and according to the rationale of our hypothesis, our preliminary screening consisted of verifying the efficacy of compounds in inhibiting cell HR and/or in increasing the antiproliferative effect of olaparib. […] HR activity was assessed by evaluating the recombination rate between two transfected plasmids, using a commercially available assay. […] As for the emissucinic acid-containing compounds (4d, 12d, 18d, 20d–23d, 30d, 31d), one of the reasons for their lower potency in cells might be the general poor permeability, likely related to the ionizable acid moiety. […] We then characterized 35d in additional biophysical and cell-based experiments.
Homologous recombination (HR) was assessed by using a commercially available assay (Norgen). This assay is based on cell transfection with two plasmids that, upon cell entry, recombine. The efficiency of HR can be assessed by real-time PCR, using primer mixtures included in the assay kit. Different primer mixtures allow one to discriminate between the original plasmid backbones and their recombination product.
BxPC3 cells (2 × 10^5 per well) were seeded in a 24-well plate and allowed to adhere overnight. Co-transfection with the two plasmids was performed in Lipofectamine 2000 (Invitrogen) according to the manufacturer’s instructions. During transfection (5 h), cells were exposed to different doses of RAD51-BRCA2 disruptors, dissolved in RPMI in the presence of 0.6% DMSO. After washing with PBS, cells were harvested, and DNA was isolated using Illustra Tissue and Cell Genomic Prep Mini Spin kit (GE Healthcare). Sample concentration was measured using an ONDA Nano Genius photometer. The efficiency of HR was assessed by real-time PCR, using 25 ng of template, the primer mixtures included in the assay kit and following the protocol indicated by the manufacturer. Data analysis was based on the ΔΔCt method: [recombination product/backbone plasmids]^treated versus [recombination product/backbone plasmids]^control.

[2] = competition with BRC4 for RAD51, triplicate, ± standard deviation, NA = not active, racemic mixtures unless enantiomer named, read-out: EC50 (μM) on ELISA assay
[3] = competition with BRC4 for RAD51, triplicate, ± standard deviation, NA = not active, racemic mixtures unless enantiomer named

Row | SMILES | EC50 (BRC4–RAD51 interaction; [2]) [µM] | other results
1 | CC(=O)N1N=C(c2c(-c3ccccc3)c3cc(Cl)ccc3[nH]c2=O)CC1c1ccc(F)cc1 (stereo not drawn) [Compound 5d, 3-(1-Acetyl-5-(4-fluorophenyl)-4,5-dihydro-1H-pyrazol-3-yl)-6-chloro-4-phenylquinolin-2(1H)-one] | 50 ± 10 | –
2 | O=C(O)CCC(=O)N1N=C(c2c(-c3ccccc3)c3cc(Cl)ccc3[nH]c2=O)CC1c1ccc(-c2ccc(Cl)cc2)cc1 (stereo not drawn) [Compound 19d, 4-(3-(6-Chloro-2-oxo-4-phenyl-1,2-dihydroquinolin-3-yl)-5-(4′-chloro-[1,1′-biphenyl]-4-yl)-4,5-dihydro-1H-pyrazol-1-yl)-4-oxobutanoic Acid] | 25 ± 5 | –
3 | CCCn1cc(-c2ccc(C3CC(c4c(-c5ccccc5)c5cc(Cl)ccc5[nH]c4=O)=NN3C(C)=O)cc2)cn1 (stereo not drawn) [Compound 51d, 3-(1-Acetyl-5-(4-(1-propyl-1H-pyrazol-4-yl)phenyl)-4,5-dihydro-1H-pyrazol-3-yl)-6-chloro-4-phenylquinolin-2(1H)-one] | 46 ± 9 | –
4 | CCn1ncc2cc(C3CC(c4c(-c5ccccc5)c5cc(Cl)ccc5[nH]c4=O)=NN3C(=O)CCC(=O)O)ccc21 (stereo not drawn) [Compound 24d, 4-(3-(6-Chloro-2-oxo-4-phenyl-1,2-dihydroquinolin-3-yl)-5-(1-ethyl-1H-indazol-5-yl)-4,5-dihydro-1H-pyrazol-1-yl)-4-oxobutanoic Acid] | – | EC50 (μM) on ELISA assay (BRC4–RAD51 interaction; [3]): inactive
5 | CCn1ncc2cc(C3CC(c4c(-c5ccccc5)c5cc(Cl)ccc5[nH]c4=O)=NN3C(C)=O)ccc21 (stereo not drawn) [Compound 47d, 3-(1-Acetyl-5-(1-ethyl-1H-indazol-5-yl)-4,5-dihydro-1H-pyrazol-3-yl)-6-chloro-4-phenylquinolin-2(1H)-one] | 40 ± 3 | –
6 | COc1ccc(-c2ccc(C3CC(c4c(-c5ccccc5)c5cc(Cl)ccc5[nH]c4=O)=NN3C(C)=O)cc2)cc1 (stereo not drawn) [Compound 44d, 3-(1-Acetyl-5-(4′-methoxy-[1,1′-biphenyl]-4-yl)-4,5-dihydro-1H-pyrazol-3-yl)-6-chloro-4-phenylquinolin-2(1H)-one] | 70 ± 6 | –
7 | CC(=O)N1N=C(c2c(-c3ccccc3)c3cc(Cl)ccc3[nH]c2=O)CC1c1ccc(Br)cc1 (stereo not drawn) [Compound 37d, 3-(1-Acetyl-5-(4-bromophenyl)-4,5-dihydro-1H-pyrazol-3-yl)-6-chloro-4-phenylquinolin-2(1H)-one] | 38 ± 7 | –
8 | O=C(O)CCC(=O)N1N=C(c2c(-c3ccccc3)c3cc(Cl)ccc3[nH]c2=O)CC1c1ccc(C(F)(F)F)cc1 (stereo not drawn) [Compound 16d, 4-(3-(6-Chloro-2-oxo-4-phenyl-1,2-dihydroquinolin-3-yl)-5-(4-(trifluoromethyl)phenyl)-4,5-dihydro-1H-pyrazol-1-yl)-4-oxobutanoic Acid] | 29 ± 2 | –
9 | CCn1cc2cc(C3CC(c4c(-c5ccccc5)c5cc(Cl)ccc5[nH]c4=O)=NN3C(C)=O)ccc2n1 (stereo not drawn) [Compound 48d, 3-(1-Acetyl-5-(2-ethyl-2H-indazol-5-yl)-4,5-dihydro-1H-pyrazol-3-yl)-6-chloro-4-phenylquinolin-2(1H)-one] | – | EC50 (μM) on ELISA assay (BRC4–RAD51 interaction; [3]): inactive
10 | CC(=O)N1N=C(c2c(-c3ccccc3)c3cc(Cl)ccc3[nH]c2=O)CC1c1ccc(-c2ccc(Cl)cc2)cc1 (stereo not drawn) [Compound 42d, 3-(1-Acetyl-5-(4′-chloro-[1,1′-biphenyl]-4-yl)-4,5-dihydro-1H-pyrazol-3-yl)-6-chloro-4-phenylquinolin-2(1H)-one] | 45 ± 8 | –
11 | CCn1cc2cc(C3CC(c4c(-c5ccccc5)c5cc(Cl)ccc5[nH]c4=O)=NN3C(=O)CCC(=O)O)ccc2n1 (stereo not drawn) [Compound 25d, 4-(3-(6-Chloro-2-oxo-4-phenyl-1,2-dihydroquinolin-3-yl)-5-(2-ethyl-2H-indazol-5-yl)-4,5-dihydro-1H-pyrazol-1-yl)-4-oxobutanoic Acid] | 28 ± 4 | –
12 | CC(=O)N1N=C(c2c(-c3ccccc3)c3cc(Cl)ccc3[nH]c2=O)CC1c1ccc(C(C)(C)C)cc1 (stereo not drawn) [Compound 39d, 3-(1-Acetyl-5-(4-(tert-butyl)phenyl)-4,5-dihydro-1H-pyrazol-3-yl)-6-chloro-4-phenylquinolin-2(1H)-one] | 15 ± 4 | HR inhibition (in words) [1]: HR inhibition = NDD ^b; EC50 (BRC4–RAD51 interaction; Table 2, compounds selected for cell-based study, read-out: EC50 ELISA): 15 ± 4 µM
13 | COc1ccc(C2CC(c3c(-c4ccccc4)c4cc(Cl)ccc4[nH]c3=O)=NN2C(C)=O)cc1 (stereo not drawn) [Compound 38d, 3-(1-Acetyl-5-(4-methoxyphenyl)-4,5-dihydro-1H-pyrazol-3-yl)-6-chloro-4-phenylquinolin-2(1H)-one] | – | EC50 (μM) on ELISA assay (BRC4–RAD51 interaction; [3]): inactive
14 | CCn1ccc2cc(C3CC(c4c(-c5ccccc5)c5cc(Cl)ccc5[nH]c4=O)=NN3C(C)=O)ccc21 (stereo not drawn) [Compound 46d, 3-(1-Acetyl-5-(1-ethyl-1H-indol-5-yl)-4,5-dihydro-1H-pyrazol-3-yl)-6-chloro-4-phenylquinolin-2(1H)-one] | 50 ± 15 | –
15 | CCCn1cc2cc(C3CC(c4c(-c5ccccc5)c5cc(Cl)ccc5[nH]c4=O)=NN3C(C)=O)ccc2n1 (stereo not drawn) [Compound 50d, 3-(1-Acetyl-5-(2-propyl-2H-indazol-5-yl)-4,5-dihydro-1H-pyrazol-3-yl)-6-chloro-4-phenylquinolin-2(1H)-one] | – | EC50 (μM) on ELISA assay (BRC4–RAD51 interaction; [3]): inactive
16 | CC(=O)N1N=C(c2c(-c3ccccc3)c3cc(Cl)ccc3[nH]c2=O)CC1c1ccc(-c2ccc(Br)cc2)cc1 (stereo not drawn) [Compound 43d, 3-(1-Acetyl-5-(4′-bromo-[1,1′-biphenyl]-4-yl)-4,5-dihydro-1H-pyrazol-3-yl)-6-chloro-4-phenylquinolin-2(1H)-one] | 70 ± 15 | –
17 | CCCn1cc(-c2ccc(C3CC(c4c(-c5ccccc5)c5cc(Cl)ccc5[nH]c4=O)=NN3C(=O)CCC(=O)O)cc2)cn1 (stereo not drawn) [Compound 32d, 4-(3-(6-Chloro-2-oxo-4-phenyl-1,2-dihydroquinolin-3-yl)-5-(4-(1-propyl-1H-pyrazol-4-yl)phenyl)-4,5-dihydro-1H-pyrazol-1-yl)-4-oxobutanoic Acid] | 65 ± 5 | –
18 | O=C(O)CCC(=O)N1N=C(c2c(-c3ccccc3)c3cc(Cl)ccc3[nH]c2=O)CC1c1ccc(Cl)cc1 (stereo not drawn) [Compound 11d, 4-(3-(6-Chloro-2-oxo-4-phenyl-1,2-dihydroquinolin-3-yl)-5-(4-chlorophenyl)-4,5-dihydro-1H-pyrazol-1-yl)-4-oxobutanoic Acid] | 59 ± 8 | –
19 | CCC(=O)N1N=C(c2c(-c3ccccc3)c3cc(Cl)ccc3[nH]c2=O)CC1c1ccc(F)cc1 (stereo not drawn) [Compound 6d, 6-Chloro-3-(5-(4-fluorophenyl)-1-propionyl-4,5-dihydro-1H-pyrazol-3-yl)-4-phenylquinolin-2(1H)-one] | 34 ± 3 | –
